In brackets after ≈: the same amount, converted by molar mass.
Assays:
[1] = test system: Radical scavenging activity; test: Antioxidant activity assessed as DPPH radical scavenging activity at 0.1 mg/mL; format: functional
[2] = molecular target: T1, Tyrosinase (Agaricus bisporus, UniProt O42713)
T1 sequence (O42713 whole entry): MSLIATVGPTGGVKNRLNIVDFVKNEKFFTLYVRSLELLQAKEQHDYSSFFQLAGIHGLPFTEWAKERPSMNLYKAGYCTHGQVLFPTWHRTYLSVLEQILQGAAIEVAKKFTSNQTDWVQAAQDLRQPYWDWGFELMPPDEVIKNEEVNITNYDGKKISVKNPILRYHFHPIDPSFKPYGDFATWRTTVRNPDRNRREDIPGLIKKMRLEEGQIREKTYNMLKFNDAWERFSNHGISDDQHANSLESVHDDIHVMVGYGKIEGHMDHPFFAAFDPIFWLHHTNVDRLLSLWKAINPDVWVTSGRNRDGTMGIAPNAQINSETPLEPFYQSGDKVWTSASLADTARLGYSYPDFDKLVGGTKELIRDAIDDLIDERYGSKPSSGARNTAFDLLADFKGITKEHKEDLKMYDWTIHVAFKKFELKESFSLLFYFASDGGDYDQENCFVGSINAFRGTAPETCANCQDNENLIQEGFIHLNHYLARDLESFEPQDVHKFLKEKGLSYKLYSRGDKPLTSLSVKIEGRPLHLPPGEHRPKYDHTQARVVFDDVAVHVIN
Description: Inhibition of mushroom tyrosinase by spectrophotometry

[3] = test system: Radical scavenging activity; test: Antioxidant activity assessed as DPPH radical scavenging activity; format: functional

O=c1c(O)c(-c2ccc(O)cc2)oc2cc(O)cc(O)c12 was tested, and the Activity [1] was 86.5%.

CC1=C(CO)C(C)(C)CC(=O)C1O (configuration not stated) [CROCUSATIN L] was tested, and the IC50 [2] was 1 mM.

In the case of Cc1c(C)c2c(c(C)c1O)CC[C@@](C)(CCC[C@H](C)CCC[C@H](C)CCCC(C)C)O2 [ALPHA-TOCOPHEROL], the IC50 [3] is reported as 150 µg/mL (≈ 348 µM).

For O=C(O)c1ccc(O)c(O)c1, the Activity [1] was 89.9%.

CC1=C(C=O)C(C)(C)[C@@H](O)[C@H](O)C1 [CROCUSATIN K] gave an IC50 [2] of 0.26 mM.

With CC1=CC(=O)CC(C)(C)C1O (configuration not stated) the IC50 [2] was 1.1 mM.

Work on O=c1c(O)c(-c2ccc(O)cc2)oc2cc(O[C@@H]3O[C@H](CO)[C@@H](O)[C@H](O)[C@H]3O)cc(O)c12 yielded an Activity [1] of 91.2%.

Source: ChEMBL document CHEMBL1146507, “Antityrosinase principles and constituents of the petals of Crocus sativus” (J Nat Prod, 2004)
